{"source": "patent US11542274B1", "about": "“Therapeutic compounds and methods of use thereof” (AGENCY FOR SCIENCE, TECHNOLOGY AND RESEARCH (A*STAR), priority 2019, dated 2023)", "tested_on": "RAMOS cells (Burkitt's lymphoma cell line)", "assay": "Anti-proliferation assay (CellTiter-Glo)", "type": "cell-based", "settings": "3 days", "description": "In cell growth experiments, cells were seeded in 96-well cell culture plates at a density of 3000 of RAMOS cells/well in 100 μL of culture medium. 100 μL of the diluted solution containing the tested compound was added to the appropriate wells of the cell plate. After addition of the tested compound, the cells were incubated at 37° C. in an atmosphere of 5% CO2 for 3 days. CellTiter-Glo (CTG) reagent from the Promega CellTiter-Glo Luminescent Cell Viability Assay kit (#G7572) was added into an OptiPlate 96 (Perkin Elmer, White, Opaque, #6005299) in the dark, incubated for at least 2 hrs, and luminescence signal was read using Tecan Safire II Multi-Mode Plate Reader. The GI50 was calculated by nonlinear regression analysis using GraphPad Prism5 software.\nGI50 is the concentration for 50% of maximal inhibition of cell proliferation."}
{"compound": "Cc1sc2c(c1C)C(c1ccc(Cl)cc1)=N[C@@H](CC(=O)NCCOCCNc1ncccc1-c1ccc3c(c1)CC(=O)N3)c1nnc(C)n1-2", "note": "[Compound 135, (S)-2-(4-(4-chlorophenyl)-2,3,9-trimethyl-6H-thieno[3,2-f][1,2,4]triazolo[4,3-a][1,4]diazepin-6-yl)-N-(2-(2-((3-(2-oxoindolin-5-yl)pyridin-2-yl)amino)ethoxy)ethyl)acetamide]", "values": [{"measurement": "GI50", "setting": "Homo sapiens, 72 h", "value": "0.001 to 0.1", "unit": "µM"}]}
{"compound": "Cc1sc2c(c1C)C(c1ccc(Cl)cc1)=N[C@@H](CC(=O)NCCOCCOCCC(=O)N1CCN(c3ccc(-c4ccc5c(c4)CC(=O)N5)cn3)CC1)c1nnc(C)n1-2", "note": "[Compound 120]", "values": [{"measurement": "GI50", "setting": "Homo sapiens, 72 h", "value": "0.001 to 0.1", "unit": "µM"}]}
{"compound": "Cc1sc2c(c1C)C(c1ccc(Cl)cc1)=N[C@@H](CC(=O)NCC1CCN(c3ccc(-c4ccc5c(c4)CC(=O)N5)cn3)CC1)c1nnc(C)n1-2", "note": "[Compound 127, (S)-2-(4-(4-chlorophenyl)-2,3,9-trimethyl-6H-thieno[3,2-f][1,2,4]triazolo[4,3-a][1,4]diazepin-6-yl)-N-((1-(5-(2-oxoindolin-5-yl)pyridin-2-yl)piperidin-4-yl)methyl)acetamide]", "values": [{"measurement": "GI50", "setting": "Homo sapiens, 72 h", "value": "0.1 to 1", "unit": "µM"}]}
{"compound": "Cc1sc2c(c1C)C(c1ccc(Cl)cc1)=N[C@@H](CC(=O)NCCOCCOCCOCCOCCOCCNc1ccc(-c3ccc4c(c3)CC(=O)N4)cn1)c1nnc(C)n1-2", "note": "[Compound 115, (S)-2-(4-(4-chlorophenyl)-2,3,9-trimethyl-6H-thieno[3,2-f][1,2,4]triazolo[4,3-a][1,4]diazepin-6-yl)-N-(17-((5-(2-oxoindolin-5-yl)pyridin-2-yl)amino)-3,6,9,12,15-pentaoxaheptadecyl)acetamide]", "values": [{"measurement": "GI50", "setting": "Homo sapiens, 72 h", "value": "0.1 to 1", "unit": "µM"}]}
{"compound": "Cc1sc2c(c1C)C(c1ccc(Cl)cc1)=N[C@@H](CC(=O)NCCOCCNc1ncc(-c3ccc4c(c3)CC(=O)N4)cn1)c1nnc(C)n1-2", "note": "[Compound 133, (S)-2-(4-(4-chlorophenyl)-2,3,9-trimethyl-6H-thieno[3,2-f][1,2,4]triazolo[4,3-a][1,4]diazepin-6-yl)-N-(2-(2-((5-(2-oxoindolin-5-yl)pyrimidin-2-yl)amino)ethoxy)ethyl)acetamide]", "values": [{"measurement": "GI50", "setting": "Homo sapiens, 72 h", "value": "0.001 to 0.1", "unit": "µM"}]}
{"compound": "Cc1sc2c(c1C)C(c1ccc(Cl)cc1)=N[C@@H](CC(=O)NCCCCCNc1ncccc1-c1ccc3c(c1)CC(=O)N3)c1nnc(C)n1-2", "note": "[Compound 105, (S)-2-(4-(4-chlorophenyl)-2,3,9-trimethyl-6H-thieno[3,2-f][1,2,4]triazolo[4,3-a][1,4]diazepin-6-yl)-N-(5-((3-(2-oxoindolin-5-yl)pyridin-2-yl)amino)pentyl)acetamide]", "values": [{"measurement": "GI50", "setting": "Homo sapiens, 72 h", "value": "0.001 to 0.1", "unit": "µM"}]}
{"compound": "Cc1sc2c(c1C)C(c1ccc(Cl)cc1)=N[C@@H](CC(=O)Nc1ccc(OCCOCCOCCOCCNc3ccc(-c4ccc5c(c4)CC(=O)N5)cc3)cc1)c1nnc(C)n1-2", "note": "[Compound 104, (S)-2-(4-(4-chlorophenyl)-2,3,9-trimethyl-6H-thieno[3,2-f][1,2,4]triazolo[4,3-a][1,4]diazepin-6-yl)-N-(4-(2-(2-(2-(2-((4-(2-oxoindolin-5-yl)phenyl)amino)ethoxy)ethoxy)ethoxy)ethoxy)phenyl)acetamide]", "values": [{"measurement": "GI50", "setting": "Homo sapiens, 72 h", "value": "0.001 to 0.1", "unit": "µM"}]}
{"compound": "(S)-2-(4-(4-chlorophenyl)-2,3,9-trimethyl-6H-thieno[3,2-f][1,2,4]triazolo[4,3-a][1,4]diazepin-6-yl)-N-(2-oxo-2-(4-(5-(2-oxoindolin-5-yl)pyridin-2-yl)piperazin-1-yl)ethyl)acetamide [Compound 122]", "values": [{"measurement": "GI50", "value": "0.001 to 0.1", "unit": "µM"}]}
{"compound": "Cc1sc2c(c1C)C(c1ccc(Cl)cc1)=N[C@@H](CC(=O)NC1CCN(c3ncccc3-c3ccc4c(c3)CC(=O)N4)CC1)c1nnc(C)n1-2", "note": "[Compound 136, (S)-2-(4-(4-chlorophenyl)-2,3,9-trimethyl-6H-thieno[3,2-f][1,2,4]triazolo[4,3-a][1,4]diazepin-6-yl)-N-(1-(3-(2-oxoindolin-5-yl)pyridin-2-yl)piperidin-4-yl)acetamide]", "values": [{"measurement": "GI50", "setting": "Homo sapiens, 72 h", "value": "0.001 to 0.1", "unit": "µM"}]}
{"compound": "Cc1sc2c(c1C)C(c1ccc(Cl)cc1)=N[C@@H](CC(=O)NC1CN(c3ccc(-c4ccc5c(c4)CC(=O)N5)cn3)C1)c1nnc(C)n1-2", "note": "[Compound 128, (S)-2-(4-(4-chlorophenyl)-2,3,9-trimethyl-6H-thieno[3,2-f][1,2,4]triazolo[4,3-a][1,4]diazepin-6-yl)-N-(1-(5-(2-oxoindolin-5-yl)pyridin-2-yl)azetidin-3-yl)acetamide]", "values": [{"measurement": "GI50", "setting": "Homo sapiens, 72 h", "value": "0.1 to 1", "unit": "µM"}]}
{"compound": "Cc1sc2c(c1C)C(c1ccc(Cl)cc1)=N[C@@H](CC(=O)Nc1ccc(OCCOCCOCCNc3ccc(-c4ccc5c(c4)CC(=O)N5)cn3)cc1)c1nnc(C)n1-2", "note": "[Compound 118, (S)-2-(4-(4-chlorophenyl)-2,3,9-trimethyl-6H-thieno[3,2-f][1,2,4]triazolo[4,3-a][1,4]diazepin-6-yl)-N-(4-(2-(2-(2-((5-(2-oxoindolin-5-yl)pyridin-2-yl)amino)ethoxy)ethoxy)ethoxy)phenyl)acetamide]", "values": [{"measurement": "GI50", "setting": "Homo sapiens, 72 h", "value": "0.1 to 1", "unit": "µM"}]}
{"compound": "Cc1sc2c(c1C)C(c1ccc(Cl)cc1)=N[C@@H](CC(=O)NCCOCCOc1ccc(-c3ccc4c(c3)CC(=O)N4)cn1)c1nnc(C)n1-2", "note": "[Compound 132, (S)-2-(4-(4-chlorophenyl)-2,3,9-trimethyl-6H-thieno[3,2-f][1,2,4]triazolo[4,3-a][1,4]diazepin-6-yl)-N-(2-(2-((5-(2-oxoindolin-5-yl)pyridin-2-yl)oxy)ethoxy)ethyl)acetamide]", "values": [{"measurement": "GI50", "setting": "Homo sapiens, 72 h", "value": "0.001 to 0.1", "unit": "µM"}]}
{"compound": "Cc1sc2c(c1C)C(c1ccc(Cl)cc1)=N[C@@H](CC(=O)Nc1ccc(OCCOCCNC(=O)c3cccc(-c4ccc5c(c4)CC(=O)N5)c3)cc1)c1nnc(C)n1-2", "note": "[Compound 106, (S)—N-(2-(2-(4-(2-(4-(4-chlorophenyl)-2,3,9-trimethyl-6H-thieno[3,2-f][1,2,4]triazolo[4,3-a][1,4]diazepin-6-yl)acetamido)phenoxy)ethoxy)ethyl)-3-(2-oxoindolin-5-yl)benzamide]", "values": [{"measurement": "GI50", "setting": "Homo sapiens, 72 h", "value": "0.001 to 0.1", "unit": "µM"}]}
{"compound": "Cc1sc2c(c1C)C(c1ccc(Cl)cc1)=N[C@@H](CC(=O)NCCOCCOCCOCCNc1ccc(C(=O)Nc3ccc4c(c3)CC(=O)N4)cn1)c1nnc(C)n1-2", "note": "[Compound 101, (S)-6-((1-(4-(4-chlorophenyl)-2,3,9-trimethyl-6H-thieno[3,2-f][1,2,4]triazolo[4,3-a][1,4]diazepin-6-yl)-2-oxo-6,9,12-trioxa-3-azatetradecan-14-yl)amino)-N-(2-oxoindolin-5-yl)nicotinamide]", "values": [{"measurement": "GI50", "setting": "Homo sapiens, 72 h", "value": "0.1 to 1", "unit": "µM"}]}
{"compound": "Cc1sc2c(c1C)C(c1ccc(Cl)cc1)=N[C@@H](CC(=O)NCCOCCOCCOCCC(=O)NC1CCCN(C(=O)c3ccc4c(c3)CC(=O)N4)C1)c1nnc(C)n1-2", "note": "(stereo partly drawn) [Compound 112, 3-(2-(2-(2-(2-((S)-4-(4-chlorophenyl)-2,3,9-trimethyl-6H-thieno[3,2-f][1,2,4]triazolo[4,3-a][1,4]diazepin-6-yl)acetamido)ethoxy)ethoxy)ethoxy)-N-(1-(2-oxoindoline-5-carbonyl)piperidin-3-yl)propanamide]", "values": [{"measurement": "GI50", "setting": "Homo sapiens, 72 h", "value": "0.1 to 1", "unit": "µM"}]}
{"compound": "Cc1sc2c(c1C)C(c1ccc(Cl)cc1)=N[C@@H](CC(=O)NC1CCN(c3ccc(-c4ccc5c(c4)CC(=O)N5)cn3)CC1)c1nnc(C)n1-2", "note": "[Compound 125, (S)-2-(4-(4-chlorophenyl)-2,3,9-trimethyl-6H-thieno[3,2-f][1,2,4]triazolo[4,3-a][1,4]diazepin-6-yl)-N-(1-(5-(2-oxoindolin-5-yl)pyridin-2-yl)piperidin-4-yl)acetamide]", "values": [{"measurement": "GI50", "setting": "Homo sapiens, 72 h", "value": "0.001 to 0.1", "unit": "µM"}]}
